Experimental data from patent US20240279232A1, “USE OF SUBSTITUTED 5-(4-METHYL-6-PHENYL-4H-BENZO[F]IMIDAZO[1,5-A][1,4] DIAZEPIN-3-YL)-1,2,4-O[…] THE TREATMENT OF INFLAMMATORY CONDITIONS” (priority 2021, published 2024).

Experiments:
RAW macrophages [1] = experiment: NO production (Griess assay), LPS/IFNγ-activated RAW264.7 macrophages; assay type: cell-based, mouse; details: for Inhibition of NO production (%) RAW macrophages 10 μM: 24 hours, 1 μM GABA, LPS/IFNγ
Mouse microglia [2] = experiment: NO production (Griess assay), LPS/IFNγ-activated mouse microglia; assay type: cell-based; details: for Inhibition of NO production (%) Mouse microglia 10 μM: 24 hours, 1 μM GABA, LPS/IFNγ
RAW macrophages [3] = experiment: Cell viability (CellTiter-Glo), RAW macrophages; assay type: cell-based, mouse; details: CellTiter-Glo
Mouse microglia [4] = experiment: Cell viability (CellTiter-Glo), mouse microglia; assay type: cell-based; details: 50 μM, CellTiter-Glo
Protocol: Next, a library of GABAAR ligands was investigated to identify compounds that reduce the production of NO as a marker of anti-inflammatory activity. […] NO was quantified with a Greiss assay. Cell viability was determined with CellTiter-Glo.
Nitric oxide production (Griess assay) and viability assay (CellTiter-Glo). 80 μL of mouse microglia culture (1×10^6 cells/mL) was plated into sterile 384 well plates representing non-activated wells. The remaining culture was activated with 50 ng/ml LPS (Invivogen, NC9836) and 150 U/mL IFNγ (R&D Systems, 485MI100) and distributed into the 384 well plates. […] Assay plates were incubated for approximately 24 hours (unless otherwise noted) at 37° C., centrifuged, and 40 μL of supernatant transferred to a new plate for analysis using the Griess Assay (Promega, Madison, WI). Absorbance at 530 nm was measured using a TECAN Infinite M1000 plate reader. The remaining 40 μL containing cells was analyzed for toxicity by the CellTiter-Glo Assay (Promega, Madison, WI). Luminescence was read using a TECAN Infinite M1000 plate reader.

HEK293 = experiment: Viability assay (CellTiter-Glo), HEK293; assay type: cell-based, human; details: for Cell viability (%) HEK293 120 μM: CellTiter-Glo
Protocol: (§1) The screen identified several compounds that reduced NO in activated microglia and macrophages. The tested compounds included achiral and chiral imidazodiazepines and benzodiazepines. In general, microglia were more sensitive to compound treatment with more pronounced reduction of NO than macrophages. […] Cell viability assays with HEK293 (kidney) and HepG2 (liver) cells were conducted in a concentration dependent manner. A limited number of compounds, such as GL-III-63, GL-III-76A, and GL-III-77, were toxic at 120 μM.
(§2) Viability assay. Human liver hepatocellular carcinoma (HEPG2) and human embryonic kidney 293T (HEK293T) cell lines were purchased (ATCC) and cultured in 75 cm^2 flasks (CellStar). Cells were grown in DMEM/High Glucose (Hyclone, #SH3024301) media to which non-essential amino acids (Hyclone, #SH30238.01), 10 mM HEPES (Hyclone, #SH302237.01), 5×10^6 units of penicillin and streptomycin (Hyclone, #SV30010), and 10% of heat inactivated fetal bovine serum (Gibco, #10082147) were added. Cells were harvested using 0.05% Trypsin (Hyclone, #SH3023601), washed with PBS, and dispensed into sterile white, optical bottom 384-well plates (NUNC, #142762). After three hours, small molecule DMSO solutions were transferred with a Tecan Freedom EVO liquid handling system equipped with a 100 nL pin tool (V&P Scientific). The controls were 3-dibutylamino-1-(4-hexyl-phenyl)-propan-1-one (25 mM in DMSO, positive control) and DMSO (negative control). The cells were incubated for 48 hours followed by the addition of CellTiter-Glo™, a luminescence-based cell viability assay (Promega, Madison, WI). All luminescence readings were performed on a Tecan Infinite M1000 plate reader. The assay was carried out in quadruplet with two independent runs. The data were analyzed by nonlinear regression.

HEPG2 = experiment: Viability assay (CellTiter-Glo), HEPG2; assay type: cell-based, human; details: for Cell viability (%) HEPG2 120 μM: CellTiter-Glo
Protocol: as §1, §2

| Compound | inhibition at 10 µM (RAW macrophages [1]; Mus musculus, Macrophage, 24 h) [%] | inhibition at 10 µM (Mouse microglia [2]; Mus musculus, Microglia, 24 h) [%] | Cell viability (%) RAW macrophages 50 μM (RAW macrophages [3]) [%] | Cell viability (%) Mouse microglia 50 μM (Mouse microglia [4]) [%] | Cell viability (%) HEK293 120 μM (HEK293) [%] | Cell viability (%) HEPG2 120 μM (HEPG2) [%] | Inhibition of NO production (%) RAW macrophages 10 μM (RAW macrophages [1]) [%] | Inhibition of NO production (%) Mouse microglia 10 μM (Mouse microglia [2]) [%] | toxicity at 120 μM (in words) (HEK293; HEK293, 120 μM) | toxicity at 120 μM (in words) (HEPG2; HepG2, 120 μM) |
| --- | --- | --- | --- | --- | --- | --- | --- | --- | --- | --- |
| CCc1noc(-c2ncn3c2[C@@H](C)N=C(c2ccccc2F)c2cc(Br)ccc2-3)n1 [GL-III-98, (R)-5-(8-Bromo-6-(2-fluorophenyl)-4-methyl-4H-benzo[f]imidazo[1,5-a][1,4]diazepin-3-yl)-3-ethyl-1,2,4-oxadiazole] | 1 ± 4 | 75 ± 9 | 100 ± 11 | 83 ± 6 | 42 ± 8 | 56 ± 5 |  |  |  |  |
| CCOC(=O)c1ncn2c1[C@@H](C)N=C(c1ccccn1)c1cc(C#C[Si](C)(C)C)ccc1-2 [GL-II-18] |  |  | 99 ± 2 | 89 ± 9 | 53 ± 10 | 100 ± 8 | 11 ± 4 | 49 ± 10 |  |  |
| CCOC(=O)c1ncn2c1[C@@H](C)N=C(c1ccccc1F)c1cc(Cl)ccc1-2 [GL-III-53] |  |  | 97 ± 7 | 72 ± 7 | 47 ± 10 | 94 ± 10 | 3 ± 2 | 85 ± 14 |  |  |
| C#Cc1ccc2c(c1)C(c1ccccc1F)=NCc1c(C(=O)OCCCO)ncn1-2 [GL-II-80] |  |  | 100 ± 2 | 85 ± 1 | 76 ± 8 | 100 ± 9 | 5 ± 3 | 38 ± 8 |  |  |
| CC1N=C(c2ccccc2F)c2cc(C#C[Si](C)(C)C)ccc2-n2cnc(-c3cnco3)c21 (centres unmarked) [GL-III-77] |  |  | 85 ± 3 | 98 ± 4 | 0 ± 2 | 0 ± 4 | 29 ± 2 | 31 ± 2 | toxic | toxic |
| C#Cc1ccc2c(c1)C(c1ccccc1)=NCC(=O)N2C [QH-II-66] |  |  | 100 ± 12 | 97 ± 11 | 81 ± 2 | 100 ± 4 | 17 ± 6 | 54 ± 9 |  |  |
| CC1N=C(c2ccccc2F)c2cc(Br)ccc2-n2cnc(C=O)c21 (centres unmarked) [GL-III-75] |  |  | 100 ± 2 | 87 ± 7 | 73 ± 2 | 74 ± 6 | 3 ± 5 | 44 ± 2 |  |  |
| C#Cc1ccc2c(c1)C(c1ccccc1F)=NC(C)C(=O)N2C (centres unmarked) [GL-III-25] |  |  | 100 ± 8 | 98 ± 4 | 93 ± 4 | 100 ± 5 | 38 ± 9 | 25 ± 10 |  |  |
| C#Cc1ccc2c(c1)C(c1ccccc1F)=NC(C)c1c(C(=S)NCC)ncn1-2 (centres unmarked) [GL-III-86] |  |  | 100 ± 14 | 99 ± 15 | 66 ± 10 | 100 ± 8 | 7 ± 4 | 39 ± 7 |  |  |
| CC1N=C(c2ccccc2F)c2cc(Br)ccc2-n2cnc(C(=O)[O-])c21.[Na+] (centres unmarked) [GL-IV-18] |  |  | 98 ± 5 | 81 ± 10 | 88 ± 5 | 80 ± 14 | 10 ± 7 | 63 ± 9 |  |  |
| C#Cc1ccc2c(c1)C(c1ccccn1)=N[C@H](C)C(=O)N2 [GL-III-27] |  |  | 100 ± 4 | 86 ± 8 | 91 ± 2 | 77 ± 7 | 1 ± 3 | 29 ± 8 |  |  |
| CCOC(=O)c1ncn2c1CN=C(c1ccccn1)c1cc(C3CC3)ccc1-2 [GL-IV-05] |  |  | 100 ± 6 | 88 ± 12 | 47 ± 3 | 100 ± 10 | 14 ± 3 | 59 ± 4 |  |  |
| C#Cc1ccc2c(c1)C(c1ccccc1F)=NC(C)c1c(C(=O)[O-])ncn1-2.[Na+] (centres unmarked) [GL-IV-17] |  |  | 100 ± 5 | 89 ± 9 | 67 ± 5 | 93 ± 8 | 5 ± 5 | 41 ± 5 |  |  |
| CC1N=C(c2ccccc2F)c2cc(Br)ccc2-n2cnc(C=O)c21 (centres unmarked) [GL-III-35] |  |  | 100 ± 2 | 100 ± 8 | 79 ± 8 | 98 ± 8 | 0 ± 4 | 17 ± 7 |  |  |
| C#Cc1ccc2c(c1)C(c1ccccc1F)=NC(C)c1c(C(=S)NC3CC3)ncn1-2 (centres unmarked) [GL-III-87] |  |  | 100 ± 7 | 100 ± 2 | 90 ± 10 | 100 ± 5 | 0 ± 1 | 23 ± 7 |  |  |
